Measured values as given in US9233171B2, “Method of treatment of tumors that are resistant to EGFR antibody therapies by EGFR antibody cytotoxic agent conjugate” (ImmunoGen, Inc., priority 2011, dated 2016).
Where two headings read alike, the source gives them in different places.

Key:
[1] = system: H226 cell line; settings: H226, Yauch et al. 2005; cited from earlier work
[2] = system: H2228 cells; assay: cytotoxic activity, H2228; type: cell-based; settings: Homo sapiens, NCI-H2228
Procedure: (§1) The cytotoxic assay was performed as follows.
EML4-ALK gene translocation leads to a constitutive activation of ALK kinase and has been identified as a driver mutation in ˜5% of NSCLC adenocarcinoma (reviewed in Castro-Carpeno J. et al., Clin Transl Oncol. 13:774-779 (2011)). […] Unfortunately, ˜40% of EML4-ALK+ tumors are resistant to crizotinib. Additionally, tumors that are sensitive to crizotinib can rapidly develop resistance to the drug (Castro-Carpeno J. et al., Clin Transl Oncol. 13:774-779 (2011)).

[3] = system: H2228 cells; settings: H2228, Koivunen et al. 2008; cited from earlier work
[4] = system: HCC827-ER-E4 cell line; assay: in vitro cytotoxicity assay, HCC827-ER-E4
[5] = system: HCC827-ER cell line; assay: in vitro cytotoxicity assay, HCC827-ER
[6] = system: HCC827-ER-E4 cell line; assay: Western blot after 16 hour erlotinib treatment, HCC827-ER-E4; type: cell-based; settings: HCC827-ER-E4, erlotinib 16 hours
[7] = system: HCC827 parental cell line; assay: Western blot after 16 hour erlotinib treatment, HCC827 parental; type: cell-based; settings: erlotinib 16 hours
[8] = system: Parental HCC827 (Aichi) cells; assay: in vitro cytotoxicity assay, parental HCC827 (Aichi); type: cell-based
Procedure: as §1
(§2) The HCC827 ER cell line contains high MET gene copy number and the HCC827 EPR cell line carries T790M EGFR mutation (Suda K. et al. Clin Cancer Res 16: 5489 (2010)). These cell lines reflect the two major mechanisms of resistance against EGFR tyrosine kinase inhibitors (Sequist L. et al. Sci Transl Med 3: 75ra26 (2011)).

[9] = system: HCC827 ER (Aichi) cells; assay: in vitro cytotoxicity assay, HCC827 ER (Aichi); type: cell-based
Procedure: as §1, §2

[10] = system: HCC827 EPR (Aichi) cells; assay: in vitro cytotoxicity assay, HCC827 EPR (Aichi); type: cell-based
Procedure: as §1, §2

[11] = molecular target: EGFR on parental HCC827 (Aichi) NSCLC cells (exon 19 deletion EGFR mutation) (UniProt P00533 25-1210); assay: cell-based or functional assay
[12] = system: HCC827-ER-E4 cell line
[13] = system: NCI-H1975 cell line; assay: in vitro cytotoxic assay (WST-8), NCI-H1975; type: cell-based
Procedure: NCI-H1975 cell line is a NSCLC adenocarcinoma cell line that carries both sensitizing (L858R) and resistant (T790M) EGFR mutations (Cosmic database, Wellcome Trust Sanger Institute), thus it closely mimics the EGFR kinase inhibitor resistant tumors found in the clinical setting.
as §1

[14] = system: Detroit 562; assay: in vitro cytotoxicity assay, Detroit 562; type: cell-based; settings: Detroit562
[15] = system: HCC827 cell line; assay: in vitro cytotoxic assay, HCC827 in absence or presence of HGF
[16] = system: HCC827-ER cell line
[17] = system: H226 cell line; assay: in vitro cytotoxic assay, H226; type: cell-based
Procedure: as §1
NSCLC cell lines with mesenchymal histology are generally more resistant to gefitinib than those with epithelial histology (Yauch R L. et al. Clin Cancer Res 11: 8686 (2005)). […] H226 cell line is a squamous cell carcinoma with mesenchymal histology.

COc1cc2ncnc(Nc3ccc(F)c(Cl)c3)c2cc1OCCCN1CCOCC1 [gefitinib]
resistance of cell line [1]: resistant

C[C@@H](Oc1cc(-c2cnn(C3CCNCC3)c2)cnc1N)c1c(Cl)ccc(F)c1Cl [crizotinib]
EC50 ([2]; H2228, EML4-ALK translocation, read-out: EC50): 3.82 µM

COc1cc(N2CCC(N3CCN(C)CC3)CC2)ccc1Nc1ncc(Cl)c(Nc2ccccc2S(=O)(=O)C(C)C)n1 [TAE684]
resistance of cell line [3]: resistant

C#Cc1cccc(Nc2ncnc3cc(OCCOC)c(OCCOC)cc23)c1 [erlotinib]
cytotoxic effect [4]: maintained erlotinib resistance
EC50 [2]: 26.1 µM
cytotoxic effect [5]: highly resistant
AKT level [6]: not changed
EGFR phosphorylation [6]: completely inhibited
ERK1/2 phosphorylation [6]: less impact
phospho AKT (pAKT) level [6]: little change
AKT level [7]: reduced
AKT phosphorylation [7]: inhibited
EGFR phosphorylation [7]: completely inhibited
ERK1/2 phosphorylation [7]: inhibited
sensitivity [8]: highly sensitive

B1: huEGFR-7R antibody (antibody, V domains shown)
VH: QVQLVQSGAEVAKPGASVKLSCKASGYTFTSYWMQWVKQRPGQGLECIGTIYPGDGDTTYTQKFQGKATLTADKSSSTAYMQLSSLRSEDSAVYYCARYDAPGYAMDYWGQGTLVTVSS
VL: DIQMTQSPSSLSASVGDRVTITCRASQDINNYLAWYQHKPGKGPKLLIHYTSTLHPGIPSRFSGSGSGRDYSFSISSLEPEDIATYYCLQYDNLLYTFGQGTKLEIKR
sensitivity / resistance [9]: highly resistant
sensitivity / resistance [10]: highly resistant
EC50, in vitro cytotoxicity (WST-8 cell viability) on parental HCC827 (Aichi) cells [11]: 0.000426 µM
cytotoxic effect [12]: little effect
cytotoxic effect [13]: did not have any effect
effect on tumor cell growth [14]: had no effect
cell growth inhibition ([15]; HCC827 + 50 ng/mL HGF): further reduced
cell growth inhibition ([15]; HCC827, absence of HGF): marginal activities
sensitivity [8]: highly sensitive
cytotoxic effect [16]: little effect
effect on tumor cell growth [17]: neither the huEGFR-7R antibody nor cetuximab had effect
